The results in this text go back to patent US8940766B2, “Methods for preventing and/or treating lysosomal storage disorders” (Amicus Therapeutics, Inc., priority 2009, dated 2015).

Where “and” joins values, the source holds several entries; their conditions need not be identical. Equal entries are not always repeated.

A short description of data set [1]: Compound concentration in brain, spleen and plasma samples of GCase enhancement study. Type of data set: in vivo, mice (C57BL/6). Particulars: nine doses; for Concentration: 24 hours after last dose. On the procedure:
(§1) The ability of orally administered test compounds (the hydrochloride salt form of Compound A and Compound B) to elevate GCase levels as compared to reference compound, IFG-tartrate, was assessed in mice. […] Seven animals were used per dose. The dosing solutions were prepared in water. Compounds were administered over 2 weeks as follows: week 1, Mon-Fri (On), Sat-Sun (Off); week 2, Mon-Thu (On); necropsy on Friday. Thus, a total of 9 doses (dosing solutions prepared fresh every day) were given to each mouse, with a 24-hour washout between the last dose and necropsy.
(§2) Plasma was collected by spinning blood at 2700 g for 10 minutes at 4° C. Liver, spleen, lung, and brain tissues were removed, washed in cold PBS, blotted dry, flash frozen on dry ice, and stored at −80° C. until analysis. GCase levels were measured by homogenizing approximately 50 mg tissue in 500 μL McIlvane (MI) buffer (100 mM sodium citrate, 200 mM sodium phosphate dibasic, 0.25% sodium taurocholate, and 0.1% Triton X-100, pH 5.2) at pH 5.2 for 3-5 seconds on ice with a micro homogenizer. Homogenates were then incubated at room temperature without and with 2.5 mM conduritol-B-epoxide (CBE) for 30 min. Finally, 3.7 mM 4-methylumbeliferryl-β-glucoside (4-MUG) substrate was added and incubated at 37° C. for 60 min. Reactions were stopped by addition of 0.4 M glycine, pH 10.6. Fluorescence was measured on a plate reader for 1 sec/well using 355 nm excitation and 460 nm emission. Total protein was determined in lysates using the MicroBCA kit according to the manufacturer's instructions. A 4-methylumbelliferone (4-MU) standard curve ranging from 1.0 nM to 50 μM was run in parallel for conversion of raw fluorescence data to absolute GCase activity (in the presence and absence of CBE) and expressed as nanomoles of 4-MU released per milligram of protein per hour (nmol/mg protein/hr). GCase levels and protein levels were calculated using Microsoft Excel (Redmond, Wash.) and GraphPad Prism version 4.02.

The target in data set [2] is T1, GCase (Mus musculus, UniProt P17439).
T1 construct: Liver, spleen, lung, and brain tissues were removed; from tissue; host or cells: brain, spleen, liver, lung of C57BL/6 mice
T1 sequence (P17439 20-515): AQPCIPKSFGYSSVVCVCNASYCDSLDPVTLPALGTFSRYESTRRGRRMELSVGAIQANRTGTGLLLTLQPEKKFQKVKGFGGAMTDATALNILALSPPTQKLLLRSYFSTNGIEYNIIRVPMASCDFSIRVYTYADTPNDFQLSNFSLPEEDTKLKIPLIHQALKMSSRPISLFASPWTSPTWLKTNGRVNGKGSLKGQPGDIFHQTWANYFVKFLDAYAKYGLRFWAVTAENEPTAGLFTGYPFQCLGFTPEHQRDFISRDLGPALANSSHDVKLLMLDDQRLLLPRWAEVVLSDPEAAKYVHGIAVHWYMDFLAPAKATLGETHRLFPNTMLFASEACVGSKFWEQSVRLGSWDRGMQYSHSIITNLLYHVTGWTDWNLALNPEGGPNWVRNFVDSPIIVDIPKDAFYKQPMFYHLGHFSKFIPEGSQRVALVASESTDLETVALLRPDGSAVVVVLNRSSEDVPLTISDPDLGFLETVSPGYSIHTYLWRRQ
The data set is described as follows: GCase enhancement in tissues of orally dosed mice. Particulars: for GCase increase: nine doses over 2 weeks, 24-hour washout. Type of data set: in vivo, mice (C57BL/6). On the procedure: as §1, §2

A short description of data set [3]: Blood brain barrier penetration after oral administration to mice. It counts as in vivo, mice (C57BL/6). Particulars: single 30 mg/kg (free base equivalent) p.o. dose, FIGS. 1A-C. On the procedure:
For this purpose, 8-week old wild-type male mice (C57BL/6) were administered a single 30 mg/kg (free base equivalent) p.o. dose of reference or test compound by gavage (n=3 mice per time point). Dosing solutions were prepared in water. After dosing, mice were euthanized with CO2 at the following time points: 0-, 0.5-, 1-, and 4-hour post-dose. […] Similarly, brains were collected from each mouse. Plasma was derived by spinning whole blood at 2700 g for 10 minutes at 4° C. followed by storage on dry ice. Whole brains were washed in cold PBS to remove contaminating blood, blotted dry, flash frozen on dry ice, and ultimately stored at −80° C. until analysis. To prepare brain samples for analysis, 50-100 mg of tissue was homogenized in […]. Samples were then clarified by centrifugation. Next, 25 μl of the brain homogenate supernatant or 25 μl of plasma were combined with 25 μl of acetonitrile:water (95/5). […] Between 20 and 30 μl sample was injected for analysis. […] When Compound B was analyzed, Compound A was used as internal standard (150.1/130.1). For calculating drug concentrations, raw data for plasma (ng/mL) and brain (ng/g) was converted to nM using the molecular weight of respective compounds and assuming 1 g of tissue is equivalent to 1 mL volume. Concentration as a function of time was plotted in GraphPad Prism version 4.02.

Data set [4] addresses T2, lysosomal GCase (Homo sapiens, UniProt P04062).
T2 construct: assayed in situ using fibroblasts established from a normal subject; endogenous in cells; host or cells: fibroblasts from a normal subject
T2 sequence (P04062 40-536): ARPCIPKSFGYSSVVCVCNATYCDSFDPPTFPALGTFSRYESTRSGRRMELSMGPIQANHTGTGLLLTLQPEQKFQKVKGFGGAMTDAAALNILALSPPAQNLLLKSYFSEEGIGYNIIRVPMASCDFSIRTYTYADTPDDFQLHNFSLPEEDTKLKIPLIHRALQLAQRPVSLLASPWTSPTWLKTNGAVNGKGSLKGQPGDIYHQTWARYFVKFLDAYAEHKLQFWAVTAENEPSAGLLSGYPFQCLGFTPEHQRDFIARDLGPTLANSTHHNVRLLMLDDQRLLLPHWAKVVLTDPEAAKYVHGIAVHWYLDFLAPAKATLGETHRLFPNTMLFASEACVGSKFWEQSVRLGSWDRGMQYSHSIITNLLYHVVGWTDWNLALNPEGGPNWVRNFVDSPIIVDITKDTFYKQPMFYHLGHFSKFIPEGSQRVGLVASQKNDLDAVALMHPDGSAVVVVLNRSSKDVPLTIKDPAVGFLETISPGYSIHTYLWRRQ
The data set is described as follows: In situ washout assay in fibroblasts (recovery of lysosomal GCase activity after compound removal). Type of data set: cell-based. Particulars: fibroblasts treated at IC90 for 16-24 hours, then drug-free medium; single exponential fit. The procedure: Cells seeded in 48-well plates were incubated with the indicated concentrations of compound for 16-24 hours. For the dose-response assays, cells were incubated with the in situ substrate 5-(pentafluorobenzoylamino)fluorescein di-β-D-glucopyranoside (PFBFDβGlu) for 1 hour and subsequently lysed to determine the extent of substrate hydrolysis in the presence of compound. […] Inhibition was determined as the ratio of activity in the presence of compound to that in the absence of compound. […] Cells were washed extensively and incubated in drug-free medium to allow net compound efflux from cells. Cells were then tested for lysosomal GCase activity at 2 hour intervals over a total period of 8 hours following compound removal. The increase in activity over time was fitted with a single exponential function to determine the compound's washout time.

Data set [5] addresses T3, GCase (Homo sapiens, UniProt P04062).
T3 sequence (P04062 40-536): T2 sequence (P04062 40-536)
Nature of the data set: Concentration-dependent increase in GCase activity (EC50, Emax). It counts as cell-based. Particulars: result in words.

[6] abbreviates: brain, 10 mg/kg (free base equivalent) p.o.
The mark [7] stands for this setting: spleen, 10 mg/kg (free base equivalent) p.o.
[8] abbreviates: mice, nine p.o. doses over 2 weeks, result in words.

Take `O[C@@H]1[C@H](CF)CNC[C@H]1O` [Compound A, (3R,4R,5R)-5-(fluoromethyl)piperidine-3,4-diol]: the “Concentration in GCase assays after dilution (value in parenthesis)” value was 0.5 nM in data set [1] (brain sample, 10 mg/kg p.o.); 3 nM in data set [1] (brain sample, 100 mg/kg p.o.); 0.3 nM in data set [1] (spleen sample, 10 mg/kg p.o.); 1.1 nM in data set [1] (spleen sample, 100 mg/kg p.o.). Besides, the GCase increase is 2.5 -fold in data set [2] (setting [6]); 3.5 -fold in data set [2] (brain, 100 mg/kg (free base equivalent) p.o.); 1.9 -fold in data set [2] (setting [7]); 2.8 -fold in data set [2] (spleen, 100 mg/kg (free base equivalent) p.o.). For the same molecule, in data set [3], the “blood brain barrier crossing compared to IFG” value is on record as “crossed the blood brain barrier more readily as compared to IFG”.

The term melting point denotes the temperature of the solid-liquid transition. Consider `Cl.O[C@@H]1[C@H](CF)CNC[C@H]1O` [Compound A-HCl, (3R,4R,5R)-5-(fluoromethyl)piperidine-3,4-diol hydrochloride], for which the melting point fell in the range of 200 to 202 °C. In data set [2] (setting [8]), the “GCase enhancement at lower doses compared to IFG-tartrate” value is listed as “unexpectedly greater than that observed with IFG-tartrate even when far lower doses”; the “GCase enhancement in brain, spleen, liver and lung compared to control or IFG-tartrate” value was “statistically significant greater GCase enhancement in brain, spleen, liver and lung as compared to mice administered control or IFG-tartrate”. For the same molecule, the “In Situ Washout” value in data set [4] was determined as 6.6 ± 0.12 h. In data set [5], the “effect on GCase activity” value is recorded as “concentration-dependent increase in GCase activity” and the “enhancement of enzyme activity compared to IFG-tartrate” value was “enhanced enzyme activity to the same maximum level at much lower concentration”.

`OC[C@H]1CNC[C@@H](O)[C@@H]1O` [IFG, (3R,4R,5R)-5-(hydroxymethyl)-3,4-piperidinediol]: the “Concentration in GCase assays after dilution (value in parenthesis)” value is 0.2 nM in data set [1] (brain sample, 10 mg/kg p.o.); 0.7 nM and 1.1 nM in data set [1] (brain sample, 100 mg/kg p.o., 100 mg/kg); 0.5 nM in data set [1] (spleen sample, 10 mg/kg p.o.); 2.6 nM and 4.2 nM in data set [1] (spleen sample, 100 mg/kg p.o., 100 mg/kg). The Concentration is 49 ± 2.4 nM in data set [1] (brain, 10 mg/kg p.o.); 182 ± 13 nM and 287 ± 74 nM in data set [1] (brain, 100 mg/kg p.o., 100 mg/kg); 67 ± 10 nM in data set [1] (plasma, 10 mg/kg p.o.); 150 ± 12 nM in data set [1] (spleen, 10 mg/kg p.o.); 711 ± 100 nM and 1139 ± 220 nM in data set [1] (spleen, 100 mg/kg p.o., 100 mg/kg). Besides, the GCase increase in data set [2] (setting [6]) was 1.5 -fold; in data set [2] (brain, 100 mg/kg (free base equivalent) p.o., 100 mg/kg) it was 2.2 -fold and 2.1 -fold; in data set [2] (setting [7]), 1.6 -fold; in data set [2] (spleen, 100 mg/kg (free base equivalent) p.o., 100 mg/kg), 1.9 -fold and 2.0 -fold.
